Assay results taken from BigSolDB 2.1.

O=C(O)[C@@H]1Cc2ccccc2N1
Conditions | solubility (mole fraction)
in ethanol, 283.15 K | 0.00168
in ethanol, 288.15 K | 0.00216
in ethanol, 292.85 K | 0.00284
in ethanol, 298.25 K | 0.00358
in ethanol, 303.05 K | 0.00454
in ethanol, 308.15 K | 0.00572
in ethanol, 313.45 K | 0.00721
in ethanol, 318.55 K | 0.00895
in ethanol, 323.35 K | 0.0107
in ethanol, 328.75 K | 0.0138
in ethanol, 333.25 K | 0.0159
in ethanol, 338.25 K | 0.0186
in ethanol, 343.15 K | 0.022
in isopropanol, 283.15 K | 0.000941
in isopropanol, 288.15 K | 0.0015
in isopropanol, 293.25 K | 0.00197
in isopropanol, 298.15 K | 0.0028
in isopropanol, 303.35 K | 0.00387
in isopropanol, 307.95 K | 0.00504
in isopropanol, 313.05 K | 0.00685
in isopropanol, 318.65 K | 0.0093
in isopropanol, 323.55 K | 0.0109
in isopropanol, 328.35 K | 0.0144
in isopropanol, 333.15 K | 0.0169
in isopropanol, 338.35 K | 0.0202
in isopropanol, 343.05 K | 0.0241
in isopropanol, 348.75 K | 0.0299
in isopropanol, 353.15 K | 0.0369
in methanol, 283.15 K | 0.00436
in methanol, 288.25 K | 0.00543
in methanol, 292.75 K | 0.00647
in methanol, 298.15 K | 0.00809
in methanol, 302.95 K | 0.0103
in methanol, 308.05 K | 0.0122
in methanol, 313.15 K | 0.0145
in methanol, 318.25 K | 0.0166
in methanol, 323.15 K | 0.019
in methanol, 328.55 K | 0.0201
in methanol, 333.15 K | 0.026
in n-butanol, 283.15 K | 0.00228
in n-butanol, 288.35 K | 0.00316
in n-butanol, 293.05 K | 0.00395
in n-butanol, 298.25 K | 0.00481
in n-butanol, 303.55 K | 0.00592
in n-butanol, 308.05 K | 0.00708
in n-butanol, 313.65 K | 0.0083
in n-butanol, 318.45 K | 0.0102
in n-butanol, 323.25 K | 0.0111
in n-butanol, 328.05 K | 0.0131
in n-butanol, 332.95 K | 0.0144
in n-butanol, 338.15 K | 0.0162
in n-butanol, 343.55 K | 0.0186
in n-butanol, 348.95 K | 0.0217
in n-butanol, 353.05 K | 0.0237
in n-butanol, 358.15 K | 0.0268
in n-propanol, 283.15 K | 0.000819
in n-propanol, 288.25 K | 0.00105
in n-propanol, 293.05 K | 0.00153
in n-propanol, 298.35 K | 0.00211
in n-propanol, 303.15 K | 0.00284
in n-propanol, 308.45 K | 0.0039
in n-propanol, 313.15 K | 0.00502
in n-propanol, 318.75 K | 0.00673
in n-propanol, 323.25 K | 0.00835
in n-propanol, 328.15 K | 0.0107
in n-propanol, 333.05 K | 0.0135
in n-propanol, 338.15 K | 0.0167
in n-propanol, 343.55 K | 0.0214
in n-propanol, 348.65 K | 0.0261
in n-propanol, 353.15 K | 0.0304
in n-propanol, 358.15 K | 0.0397
in water, 283.15 K | 0.000308
in water, 288.35 K | 0.000309
in water, 292.25 K | 0.000316
in water, 297.45 K | 0.000322
in water, 302.15 K | 0.000335
in water, 308.55 K | 0.000365
in water, 313.15 K | 0.000401
in water, 318.25 K | 0.00046
in water, 323.45 K | 0.000547
in water, 328.65 K | 0.000673
in water, 333.15 K | 0.000825
in water, 338.55 K | 0.00108
in water, 342.95 K | 0.00138
in water, 348.75 K | 0.00196
in water, 353.15 K | 0.0026
in water, 358.15 K | 0.00366
